Source: patent publication US20090318501A1, “Piperidine derivatives as renin inhibitors” (priority 2006, published 2009)

What was measured:
[1] = molecular target: T1, trypsin-activated recombinant human renin (Homo sapiens, UniProt P00797); test: In vitro renin inhibition, fluorescence of internally quenched peptide substrate; type: biochemical; conditions: pH 7.0, rt
T1 sequence (P00797 67-406): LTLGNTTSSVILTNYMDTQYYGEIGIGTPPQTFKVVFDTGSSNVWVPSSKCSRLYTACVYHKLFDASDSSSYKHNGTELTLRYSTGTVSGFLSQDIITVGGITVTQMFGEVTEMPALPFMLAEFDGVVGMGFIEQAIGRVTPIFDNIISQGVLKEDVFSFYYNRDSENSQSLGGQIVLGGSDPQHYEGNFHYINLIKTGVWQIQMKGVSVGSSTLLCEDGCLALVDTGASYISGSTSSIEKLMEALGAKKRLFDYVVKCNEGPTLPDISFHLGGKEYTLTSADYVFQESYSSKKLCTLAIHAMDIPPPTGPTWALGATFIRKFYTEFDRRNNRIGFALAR
Experimental: The sequence of this peptide corresponds to the sequence of human angiotensinogen. The following test protocol was used. All reactions were carried out in a flat bottom white opaque microtiter plate. A 4 μL aliquot of 400 μM renin substrate (DABCYL-γ-[…]) in 192 μL assay buffer (50 mM BES, 150 mM NaCl, 0.25 mg/mL bovine serum albumin, pH7.0) was added to 4 μL of test compound in DMSO at various concentrations ranging from 10 μM to 1 nM final concentrations. Next, 100 μL of trypsin-activated recombinant human renin (final enzyme concentration of 0.2-2 nM) in assay buffer was added, and the solution was mixed by pipetting. The increase in fluorescence at 495 nm (excitation at 340 nm) is measured for 60-360 minutes at rt using a Perkin-Elmer Fusion microplate reader. The slope of a linear portion of the plot of fluorescence-increase as a function of time was then determined, and the rate was used for calculating percent inhibition in relation to uninhibited control. […] (Wang G. T. et al. Anal. Biochem. 1993, 210, 351; Nakamura, N. et al. J. Biochem. (Tokyo) 1991, 109, 741; Murakami, K. et al. Anal Biochem. 1981, 110, 232).

[2] = molecular target: T2, plasma renin activity (PRA) (Homo sapiens, UniProt P00797); test: In vitro plasma renin activity (PRA) in human plasma, angiotensin I radioimmunoassay; type: biochemical; conditions: pooled human plasma, 37° C., 90 min, IC50 of plasma renin activity
T2 construct: 87.3% of pooled mixed-gender human plasma stabilized with EDTA; from tissue; host or cells: pooled mixed-gender human plasma (EDTA)
T2 sequence (P00797 67-406): T1 sequence (P00797 67-406)
Experimental: For plasma batches with low PRA (less than 1 ng/ml/hr) ˜2 pM of recombinant human renin was added to achieve PRA of 3-4 ng/ml/hr. The cleavage of endogenous angiotensinogen in plasma was carried out at 37° C. for 90 min and the product angiotensin I was measured by competitive radioimmunoassay using DiaSorin PRA kit.

[3] = Plasma concentration in transgenic rats after oral administration; type: in vivo, rat; conditions: 10 mg/kg, FIG. 2
Experimental: FIG. 2 is a plot showing mean plasma concentrations of compound 6a in transgenic rats over time following oral administration of 10 mg/kg of compound 6a.
(§1) Experiments were conducted in 6-week-old double transgenic rats (dTGRs). The model has been described in detail earlier. […] The human angiotensinogen construct made up the entire human angiotensinogen gene (5 exons and 4 introns), with 1.3 kB of 5′-flanking and 2.4 kB of 3′-flanking sequences. The rats were purchased from RCC Ltd (Füillinsdorf, Switzerland). Radio telemetry transmitters were surgically implanted at 4 weeks of age. The telemetry system provided 24-h recordings of systolic, mean, diastolic arterial pressure (SAP, MAP, DAP, respectively) and heart rate (HR). Beginning on day 42, animals were transferred to telemetry cages. A 24 h telemetry reading was obtained. Rats were then dosed orally on the following 4 consecutive days (days 43-46). The rats were monitored continuously and allowed free access to standard 0.3%-sodium rat chow and drinking water.

[4] = test system: double transgenic rats engineered to express human renin and human angiotensinogen; test: In vivo efficacy in double transgenic rats, telemetry blood pressure; parameters: species or system rat; conditions: oral, 10 mg/kg, FIG. 3
Experimental: Double Transgenic Rat: The efficacy of the renin inhibitor 6a was evaluated in vivo in double transgenic rats engineered to express human renin and human angiotensinogen (Bohlender J, Fukamizu A, Lippoldt A, Nomura T, Dietz R, Menard J, Murakami K, Luft F C, Ganten D. High human renin hypertension in transgenic rats. Hypertension 1997, 29, 428-434).
as §1

| SMILES | IC50 [1] [nM] | IC50 [2] [nM] | oral bioavailability and metabolic stability [3] | plasma concentration of compound following oral administration [3] | effect on mean arterial blood pressure [4] |
| --- | --- | --- | --- | --- | --- |
| CNC[C@H](C[C@@H]1CCCOC1)NC(=O)N1CCC[C@@H]([C@@H](OCCNC(=O)OC)c2cccc(Cl)c2)C1 [Compound 6b, methyl 2-((R)-(3-chlorophenyl)((R)-1-((S)-1-(methylamino)-3-((S)-tetrahydro-2H-pyran-3-yl)propan-2-ylcarbamoyl)piperidin-3-yl)methoxy)ethylcarbamate] | < 10 | < 10 | – | – | – |
| CNC[C@H](C[C@H]1CCCOC1)NC(=O)N1CCC[C@@H]([C@@H](OCCNC(=O)OC)c2cc(F)ccc2C)C1 [Compound 5a, methyl 2-((R)-(5-fluoro-2-methylphenyl)((R)-1-((S)-1-(methylamino)-3-((R)-tetrahydro-2H-pyran-3-yl)propan-2-ylcarbamoyl)piperidin-3-yl)methoxy)-ethylcarbamate] | < 10 | < 10 | – | – | – |
| CNC[C@H](C[C@@H]1CCCOC1)NC(=O)N1CCC[C@@H]([C@@H](OCCNC(=O)OC)c2cc(F)ccc2C)C1 [Compound 5b, methyl 2-((R)-(5-fluoro-2-methylphenyl)((R)-1-((S)-1-(methylamino)-3-((S)-tetrahydro-2H-pyran-3-yl)propan-2-ylcarbamoyl)piperidin-3-yl)methoxy)-ethylcarbamate] | < 20 | < 50 | – | – | – |
| CNC[C@H](C[C@@H]1CCCOC1)NC(=O)N1CCC[C@@H]([C@@H](OCCNC(=O)OC)c2cc(F)cc(F)c2)C1 [Compound 4b, methyl 2-((R)-(3,5-difluorophenyl)((R)-1-((S)-1-(methylamino)-3-((S)-tetrahydro-2H-pyran-3-yl)propan-2-ylcarbamoyl)piperidin-3-yl)methoxy)ethylcarbamate] | < 10 | < 50 | – | – | – |
| CNC[C@H](C[C@@H]1CCCOC1)NC(=O)N1CCC[C@@H]([C@@H](OCCNC(=O)OC)c2cccc(F)c2)C1 [Compound 2b, methyl 2-((R)-(3-fluorophenyl)((R)-1-((S)-1-(methylamino)-3-((S)-tetrahydro-2H-pyran-3-yl)propan-2-ylcarbamoyl)piperidin-3-yl)methoxy)ethylcarbamate] | < 10 | < 20 | – | – | – |
| CNC[C@H](C[C@@H]1CCCOC1)NC(=O)N1CCC[C@@H]([C@@H](OCCNC(=O)OC)c2cc(F)cc(Cl)c2)C1 [Compound 3b, Methyl 2-((R)-(3-chloro-5-fluorophenyl)((R)-1-((S)-1-(methylamino)-3-((S)-tetrahydro-2H-pyran-3-yl)propan-2-ylcarbamoyl)piperidin-3-yl)methoxy)ethylcarbamate] | < 10 | < 10 | – | – | – |
| CNC[C@H](C[C@H]1CCCOC1)NC(=O)N1CCC[C@@H]([C@@H](OCCNC(=O)OC)c2cc(F)cc(F)c2)C1 [Compound 4a, methyl 2-((R)-(3,5-difluorophenyl)((R)-1-((S)-1-(methylamino)-3-((R)-tetrahydro-2H-pyran-3-yl)propan-2-ylcarbamoyl)piperidin-3-yl)methoxy)ethylcarbamate] | < 10 | < 10 | – | – | – |
| CNC[C@H](CC1CCCOC1)NC(=O)N1CCC[C@@H]([C@@H](OCCNC(=O)OC)c2cccc(C)c2)C1 (stereo partly drawn) [Compound 1, methyl 2-((R)-((R)-1-((S)-1-(methylamino)-3-(tetrahydro-2H-pyran-3-yl)propan-2-ylcarbamoyl)piperidin-3-yl)(m-tolyl)methoxy)ethylcarbamate] | < 10 | < 10 | – | – | – |
| CCOC(=O)NCCO[C@@H](c1cc(F)cc(Cl)c1)[C@@H]1CCCN(C(=O)N[C@H](CNC)C[C@H]2CCCOC2)C1 [Compound 9, ethyl 2-((R)-(3-chloro-5-fluorophenyl)((R)-1-((S)-1-(methylamino)-3-((R)-tetrahydro-2H-pyran-3-yl)propan-2-ylcarbamoyl)piperidin-3-yl)methoxy)-ethylcarbamate] | < 10 | < 50 | – | – | – |
| CNC[C@H](C[C@H]1CCCOC1)NC(=O)N1CCC[C@@H]([C@@H](OCCNC(=O)OC)c2ccccc2)C1 [Compound 7, methyl 2-((R)-((R)-1-((S)-1-(methylamino)-3-((R)-tetrahydro-2H-pyran-3-yl)propan-2-ylcarbamoyl)piperidin-3-yl)(phenyl)methoxy)ethylcarbamate] | < 20 | < 50 | – | – | – |

The next lines start with results.

| IC50 [1] [nM] | IC50 [2] [nM] | oral bioavailability and metabolic stability [3] | plasma concentration of compound following oral administration [3] | SMILES | effect on mean arterial blood pressure [4] |
| --- | --- | --- | --- | --- | --- |
| < 10 | < 1 | – | – | CNC[C@H](C[C@H]1CCCOC1)NC(=O)N1CCC[C@@H]([C@@H](OCCNC(=O)OC)c2cc(Cl)ccc2C)C1 [Compound 10, methyl 2-((R)-(5-chloro-2-methylphenyl)((R)-1-((S)-1-(methylamino)-3-((R)-tetrahydro-2H-pyran-3-yl)propan-2-ylcarbamoyl)piperidin-3-yl)methoxy)-ethylcarbamate] | – |
| < 10 | < 10 | – | – | CNC[C@H](C[C@H]1CCCOC1)NC(=O)N1CCC[C@@H]([C@@H](OCCNC(=O)OC)c2ccc(F)c(Cl)c2)C1 [Compound 8, methyl 2-((R)-(3-chloro-4-fluorophenyl)((R)-1-((S)-1-(methylamino)-3-((R)-tetrahydro-2H-pyran-3-yl)propan-2-ylcarbamoyl)piperidin-3-yl)methoxy)-ethylcarbamate] | – |
| < 10 | < 10 | – | – | CNC[C@H](C[C@H]1CCCOC1)NC(=O)N1CCC[C@@H]([C@@H](OCCNC(=O)OC)c2cccc(F)c2)C1 [Compound 2a, methyl 2-((R)-(3-fluorophenyl)((R)-1-((S)-1-(methylamino)-3-((R)-tetrahydro-2H-pyran-3-yl)propan-2-ylcarbamoyl)piperidin-3-yl)methoxy)ethylcarbamate] | – |
| < 1 | < 1 | – | – | CNC[C@H](C[C@H]1CCCOC1)NC(=O)N1CCC[C@@H]([C@@H](OCCNC(=O)OC)c2cc(F)cc(Cl)c2)C1 [Compound 3a, methyl 2-((R)-(3-chloro-5-fluorophenyl)((R)-1-((S)-1-(methylamino)-3-((R)-tetrahydro-2H-pyran-3-yl)propan-2-ylcarbamoyl)piperidin-3-yl)methoxy)ethylcarbamate] | – |
| < 1 | < 1 | excellent | remains relatively high over 24 h period | CNC[C@H](C[C@H]1CCCOC1)NC(=O)N1CCC[C@@H]([C@@H](OCCNC(=O)OC)c2cccc(Cl)c2)C1 [Compound 6a, methyl 2-((R)-(3-chlorophenyl)((R)-1-((S)-1-(methylamino)-3-((R)-tetrahydro-2H-pyran-3-yl)propan-2-ylcarbamoyl)piperidin-3-yl)methoxy)ethylcarbamate] | significant effect in lowering blood pressures |
